Laboratory results: article PMC5218480 (PLoS ONE, 2017)

Tested on: MV-4-11 cells
Experiment: Gene expression microarray analysis (Affymetrix PrimeView) and GSEA
Format: cell-based, human
Parameters: RFU PODN (11730768_x_at) / Fold change /veh PODN (11730768_x_at) / RFU LINC00158 (11744669_a_at) / Fold change /veh LINC00158 (11744669_a_at) / RFU DUSP10 (11751237_a_at) / Fold change /veh DUSP10 (11751237_a_at) / RFU ID3 (11757404_x_at) / Fold change /veh ID3 (11757404_x_at) / RFU PLEKHG5 (11737974_s_at) / Fold change /veh PLEKHG5 (11737974_s_at) / RFU LRRC4B (11730491_at) / Fold change /veh LRRC4B (11730491_at) / RFU GIMAP4 (11747438_a_at) / Fold change /veh GIMAP4 (11747438_a_at) / RFU KRT8 (11758183_x_at) / Fold change /veh KRT8 (11758183_x_at) / RFU CNN1 (11734310_a_at) / Fold change /veh CNN1 (11734310_a_at) / RFU VPS37D (11726825_at) / Fold change /veh VPS37D (11726825_at) / RFU C10orf10 (11716522_x_at) / Fold change /veh C10orf10 (11716522_x_at) / RFU KIR2DL2 /// KIR2DL4 /// KIR2DL5A /// KIR2DL5B /// KIR2DS1 /// KIR2DS2 /// KIR2DS3 /// KIR2DS4 /// KIR3DL3 /// KIR3DL3 /// KIR3DS1 (11738374_at) / Fold change /veh KIR2DL2 /// KIR2DL4 /// KIR2DL5A /// KIR2DL5B /// KIR2DS1 /// KIR2DS2 /// KIR2DS3 /// KIR2DS4 /// KIR3DL3 /// KIR3DL3 /// KIR3DS1 (11738374_at) / RFU C1QL1 (11718748_at) / Fold change /veh C1QL1 (11718748_at) / RFU TMPRSS4 (11747572_a_at) / Fold change /veh TMPRSS4 (11747572_a_at) / RFU HAMP (11756126_x_at) / Fold change /veh HAMP (11756126_x_at) / RFU RNFT2 (11725882_a_at) / Fold change /veh RNFT2 (11725882_a_at) / RFU NR4A2 (11747474_a_at) / Fold change /veh NR4A2 (11747474_a_at) / RFU ABCC12 (11746883_a_at) / Fold change /veh ABCC12 (11746883_a_at) / RFU TMEM136 (11760407_x_at) / Fold change /veh TMEM136 (11760407_x_at) / RFU CLDN22 /// WWC2 (11732394_at) / Fold change /veh CLDN22 /// WWC2 (11732394_at) / RFU HLA-DPB1 (11760878_x_at) / Fold change /veh HLA-DPB1 (11760878_x_at) / RFU SPINT1 (11716480_a_at) / Fold change /veh SPINT1 (11716480_a_at) / RFU GAP43 (11754022_s_at) / Fold change /veh GAP43 (11754022_s_at) / RFU A4GNT (11735810_at) / Fold change /veh A4GNT (11735810_at) / RFU PRB3 (11715151_x_at) / Fold change /veh PRB3 (11715151_x_at) / RFU TUBB4B (11761932_at) / Fold change /veh TUBB4B (11761932_at) / RFU CAPN14 (11732068_a_at) / Fold change /veh CAPN14 (11732068_a_at) / RFU TMCC2 (11721928_a_at) / Fold change /veh TMCC2 (11721928_a_at) / RFU IRGQ (11745062_a_at) / Fold change /veh IRGQ (11745062_a_at) / RFU FAM174B (11720279_a_at) / Fold change /veh FAM174B (11720279_a_at) / RFU TMPRSS4 (11748680_a_at) / Fold change /veh TMPRSS4 (11748680_a_at) / RFU FAM212B (11763350_a_at) / Fold change /veh FAM212B (11763350_a_at) / RFU PLEKHG5 (11743358_a_at) / Fold change /veh PLEKHG5 (11743358_a_at) / RFU ZSCAN30 (11745921_a_at) / Fold change /veh ZSCAN30 (11745921_a_at) / RFU CMKLR1 (11741424_a_at) / Fold change /veh CMKLR1 (11741424_a_at) / RFU LOC101060620 /// MAPK8IP1 (11723275_at) / Fold change /veh LOC101060620 /// MAPK8IP1 (11723275_at) / RFU SPTSSB (11747773_x_at) / Fold change /veh SPTSSB (11747773_x_at) / RFU PRSS12 (11739890_at) / Fold change /veh PRSS12 (11739890_at) / RFU BIN1 (11741810_x_at) / Fold change /veh BIN1 (11741810_x_at) / RFU WNT11 (11732464_a_at) / Fold change /veh WNT11 (11732464_a_at) / RFU C10orf10 (11716521_a_at) / Fold change /veh C10orf10 (11716521_a_at) / RFU C5orf56 (11738089_at) / Fold change /veh C5orf56 (11738089_at) / RFU CYB561 (11721691_x_at) / Fold change /veh CYB561 (11721691_x_at) / RFU ANKRD19P (11752326_a_at) / Fold change /veh ANKRD19P (11752326_a_at) / RFU OR2T12 /// OR2T33 /// OR2T8 (11738714_s_at) / Fold change /veh OR2T12 /// OR2T33 /// OR2T8 (11738714_s_at) / RFU VCAN (11748164_a_at) / Fold change /veh VCAN (11748164_a_at) / RFU JSRP1 (11732532_at) / Fold change /veh JSRP1 (11732532_at) / RFU KRTAP10-11 (11738290_x_at) / Fold change /veh KRTAP10-11 (11738290_x_at) / RFU MYO3A (11730013_a_at) / Fold change /veh MYO3A (11730013_a_at) / RFU EBF3 (11725865_a_at) / Fold change /veh EBF3 (11725865_a_at) / RFU CAMK2N1 (11719241_x_at) / Fold change /veh CAMK2N1 (11719241_x_at) / RFU C5orf56 (11738088_a_at) / Fold change /veh C5orf56 (11738088_a_at) / RFU OLFML3 (11715873_a_at) / Fold change /veh OLFML3 (11715873_a_at) / RFU LOC100653217 /// NTM (11731650_a_at) / Fold change /veh LOC100653217 /// NTM (11731650_a_at) / RFU MAPK11 (11762145_a_at) / Fold change /veh MAPK11 (11762145_a_at) / RFU FIZ1 (11724087_x_at) / Fold change /veh FIZ1 (11724087_x_at) / RFU OASL (11726364_x_at) / Fold change /veh OASL (11726364_x_at) / RFU SOX15 (11748057_x_at) / Fold change /veh SOX15 (11748057_x_at) / RFU CD79A (11719716_a_at) / Fold change /veh CD79A (11719716_a_at) / RFU HIST1H1D (11736915_at) / Fold change /veh HIST1H1D (11736915_at) / RFU CASKIN2 (11723855_a_at) / Fold change /veh CASKIN2 (11723855_a_at) / RFU LOC730098 (11760151_x_at) / Fold change /veh LOC730098 (11760151_x_at) / RFU OR4N2 (11742367_at) / Fold change /veh OR4N2 (11742367_at) / RFU PRRT2 (11749266_a_at) / Fold change /veh PRRT2 (11749266_a_at) / RFU SNX32 (11753110_a_at) / Fold change /veh SNX32 (11753110_a_at) / RFU CDHR5 (11726645_a_at) / Fold change /veh CDHR5 (11726645_a_at) / RFU RCAN1 (11760418_a_at) / Fold change /veh RCAN1 (11760418_a_at) / RFU FAM167A (11723789_a_at) / Fold change /veh FAM167A (11723789_a_at) / RFU FAM26E (11764081_at) / Fold change /veh FAM26E (11764081_at) / RFU ISYNA1 (11749810_s_at) / Fold change /veh ISYNA1 (11749810_s_at) / RFU ACY1 (11761880_at) / Fold change /veh ACY1 (11761880_at) / RFU 11764098_at / Fold change /veh 11764098_at / RFU SAMD14 (11745864_x_at) / Fold change /veh SAMD14 (11745864_x_at) / RFU NPB (11741838_a_at) / Fold change /veh NPB (11741838_a_at) / RFU TMPRSS6 (11731388_a_at) / Fold change /veh TMPRSS6 (11731388_a_at) / RFU KRTAP10-2 (11738614_at) / Fold change /veh KRTAP10-2 (11738614_at) / RFU ARHGAP8 /// PRR5-ARHGAP8 (11727945_x_at) / Fold change /veh ARHGAP8 /// PRR5-ARHGAP8 (11727945_x_at) / RFU KRTAP5-7 /// NADSYN1 (11734609_at) / Fold change /veh KRTAP5-7 /// NADSYN1 (11734609_at) / RFU RASL12 (11751679_a_at) / Fold change /veh RASL12 (11751679_a_at) / RFU CDKN2B (11736163_a_at) / Fold change /veh CDKN2B (11736163_a_at) / RFU PRF1 (11729649_at) / Fold change /veh PRF1 (11729649_at) / RFU, ZNF638 /// ZNF638-IT1 / Fold change vs veh, ZNF638 /// ZNF638-IT1 / RFU, PANK3 / Fold change vs veh, PANK3 / RFU, SH3YL1 / Fold change vs veh, SH3YL1 / RFU, ZEB2 / Fold change vs veh, ZEB2 / RFU, NRIP1 / Fold change vs veh, NRIP1 / RFU, PTTG1IP / Fold change vs veh, PTTG1IP / RFU, CAPN2 / Fold change vs veh, CAPN2 / RFU, MED14 / Fold change vs veh, MED14 / RFU, SNORA58 / Fold change vs veh, SNORA58 / RFU, C1orf63 / Fold change vs veh, C1orf63 / RFU, LRRFIP1 / Fold change vs veh, LRRFIP1 / RFU, NDUFAF7 / Fold change vs veh, NDUFAF7 / RFU, SLC12A2 / Fold change vs veh, SLC12A2 / RFU, IBTK / Fold change vs veh, IBTK / RFU, ESF1 / Fold change vs veh, ESF1 / Fold change vs veh, TMEM50B / RFU, TAOK1 / Fold change vs veh, TAOK1 / RFU, ACBD3 / Fold change vs veh, ACBD3 / RFU, TMA16 / Fold change vs veh, TMA16 / RFU, RWDD3 / Fold change vs veh, RWDD3 / RFU, BCAT1 / Fold change vs veh, BCAT1 / RFU, EDEM3 / Fold change vs veh, EDEM3 / RFU, TMEM33 / Fold change vs veh, TMEM33 / RFU, WDR75 / Fold change vs veh, WDR75 / RFU, AHCTF1 / Fold change vs veh, AHCTF1 / RFU, TFRC / Fold change vs veh, TFRC / RFU, ZDHHC17 / Fold change vs veh, ZDHHC17 / RFU, NOM1 / Fold change vs veh, NOM1 / RFU, ARL8B / Fold change vs veh, ARL8B / RFU, ZBTB11 / Fold change vs veh, ZBTB11 / RFU, TAMM41 / Fold change vs veh, TAMM41 / RFU, KIAA1704 /// LOC100996395 / Fold change vs veh, KIAA1704 /// LOC100996395 / RFU, ING1 / Fold change vs veh, ING1 / RFU, TRMT61B / Fold change vs veh, TRMT61B / RFU, FUBP3 / Fold change vs veh, FUBP3 / RFU, TP53 / Fold change vs veh, TP53 / RFU, TNKS2 / Fold change vs veh, TNKS2 / RFU, ZFP14 / Fold change vs veh, ZFP14 / RFU, ACTR2 / Fold change vs veh, ACTR2 / RFU, PPP3R1 / Fold change vs veh, PPP3R1 / RFU, PIK3R1 / Fold change vs veh, PIK3R1 / RFU, HNRNPA1 / Fold change vs veh, HNRNPA1 / RFU, RNF170 / Fold change vs veh, RNF170 / RFU, ZNF28 / Fold change vs veh, ZNF28 / RFU, RNGTT / Fold change vs veh, RNGTT / RFU, OGT / Fold change vs veh, OGT / RFU, BRD1 / Fold change vs veh, BRD1 / RFU, MARS / Fold change vs veh, MARS / RFU, ZNF655 / Fold change vs veh, ZNF655 / RFU, FAHD1 / Fold change vs veh, FAHD1 / RFU, BDP1 / Fold change vs veh, BDP1 / RFU, LRRCC1 / Fold change vs veh, LRRCC1 / RFU, ARID1A / Fold change vs veh, ARID1A / RFU, ZNF146 / Fold change vs veh, ZNF146 / RFU, ZNF330 / Fold change vs veh, ZNF330 / RFU, GPN3 / Fold change vs veh, GPN3 / RFU, C9orf123 / Fold change vs veh, C9orf123 / RFU, N4BP2L2 / Fold change vs veh, N4BP2L2 / RFU, ARFIP1 / Fold change vs veh, ARFIP1 / RFU, FAM179B / Fold change vs veh, FAM179B / RFU, BCL10 / Fold change vs veh, BCL10 / RFU, UHRF1BP1L / Fold change vs veh, UHRF1BP1L / RFU, BET1 / Fold change vs veh, BET1 / RFU, CNOT2 / Fold change vs veh, CNOT2 / RFU, ZNF268 / Fold change vs veh, ZNF268 / Fold change vs veh, ZNF507 / RFU, DGCR2 / Fold change vs veh, DGCR2 / RFU, WDSUB1 / Fold change vs veh, WDSUB1 / Fold change vs veh, HSP90B1 /// MIR3652 / RFU, ADSS / Fold change vs veh, ADSS / RFU, GK / Fold change vs veh, GK / RFU, ZNF148 / Fold change vs veh, ZNF148 / RFU, TAF9 / Fold change vs veh, TAF9 / RFU, SLC1A5 / Fold change vs veh, SLC1A5 / RFU, SLMO2 / Fold change vs veh, SLMO2 / RFU, ABCC4 / Fold change vs veh, ABCC4 / RFU, LOC101060439 /// RAP1B / Fold change vs veh, LOC101060439 /// RAP1B / RFU, RFX7 / Fold change vs veh, RFX7 / RFU, GTPBP10 / Fold change vs veh, GTPBP10 / RFU, CNEP1R1 / Fold change vs veh, CNEP1R1 / RFU, BIVM-ERCC5 /// ERCC5 / Fold change vs veh, BIVM-ERCC5 /// ERCC5 / RFU, ILF3 / Fold change vs veh, ILF3 / RFU 11762660_at / Fold change /veh 11762660_at / RFU VCAN (11757783_s_at) / Fold change /veh VCAN (11757783_s_at) / RFU DDX43 (11728927_at) / Fold change /veh DDX43 (11728927_at) / RFU KRT8 (11758188_x_at) / Fold change /veh KRT8 (11758188_x_at) / RFU NKD1 (11759106_at) / Fold change /veh NKD1 (11759106_at) / RFU SRD5A1 (11742802_a_at) / Fold change /veh SRD5A1 (11742802_a_at) / RFU TPSAB1 /// TPSB2 (11721975_s_at) / Fold change /veh TPSAB1 /// TPSB2 (11721975_s_at) / RFU GSTM3 (11746129_a_at) / Fold change /veh GSTM3 (11746129_a_at) / RFU IL23R (11737362_x_at) / Fold change /veh IL23R (11737362_x_at) / RFU TMEM51 (11727254_a_at) / Fold change /veh TMEM51 (11727254_a_at) / RFU PIWIL2 (11732686_x_at) / Fold change /veh PIWIL2 (11732686_x_at) / RFU ORM1 (11744905_x_at) / Fold change /veh ORM1 (11744905_x_at) / RFU CCDC152 (11743942_at) / Fold change /veh CCDC152 (11743942_at) / RFU ECM1 (11717891_a_at) / Fold change /veh ECM1 (11717891_a_at) / RFU IL23R (11748794_a_at) / Fold change /veh IL23R (11748794_a_at) / RFU TNFAIP8L3 (11732012_x_at) / Fold change /veh TNFAIP8L3 (11732012_x_at) / RFU MBOAT4 (11741988_at) / Fold change /veh MBOAT4 (11741988_at) / RFU 11764193_at / Fold change /veh 11764193_at / RFU TMEM53 (11763286_at) / Fold change /veh TMEM53 (11763286_at) / RFU MAGEB2 (11727129_at) / Fold change /veh MAGEB2 (11727129_at) / RFU TMEM200A (11744735_a_at) / Fold change /veh TMEM200A (11744735_a_at) / RFU CCDC152 (11751479_a_at) / Fold change /veh CCDC152 (11751479_a_at) / RFU FAM211A (11726209_a_at) / Fold change /veh FAM211A (11726209_a_at) / RFU RGS16 (11746705_a_at) / Fold change /veh RGS16 (11746705_a_at) / RFU VCAN (11755009_s_at) / Fold change /veh VCAN (11755009_s_at) / RFU RHOB (11743442_s_at) / Fold change /veh RHOB (11743442_s_at) / RFU RGS16 (11720943_a_at) / Fold change /veh RGS16 (11720943_a_at) / RFU RGS16 (11720944_at) / Fold change /veh RGS16 (11720944_at) / RFU, VPS4B / Fold change vs veh, VPS4B / RFU, CREB1 / Fold change vs veh, CREB1 / RFU, DNAJC13 / Fold change vs veh, DNAJC13 / RFU, GNAQ / Fold change vs veh, GNAQ / RFU, CDK5R1 / Fold change vs veh, CDK5R1 / RFU, ZRANB3 / Fold change vs veh, ZRANB3 / RFU, CUL4A / Fold change vs veh, CUL4A / RFU, CCNY / Fold change vs veh, CCNY / RFU, UFL1 / Fold change vs veh, UFL1 / RFU, COG3 / Fold change vs veh, COG3 / RFU, DIAPH2 / Fold change vs veh, DIAPH2 / RFU, SKA2 / Fold change vs veh, SKA2 / RFU, AFF3 / Fold change vs veh, AFF3 / RFU, LMF1 / Fold change vs veh, LMF1 / RFU, IPO11 / Fold change vs veh, IPO11 / RFU, DFFB / Fold change vs veh, DFFB / RFU, FOXP1 / Fold change vs veh, FOXP1 / RFU, CARD8 / Fold change vs veh, CARD8 / RFU, STRN3 / Fold change vs veh, STRN3 / RFU, ADK / Fold change vs veh, ADK / RFU, RASSF2 / Fold change vs veh, RASSF2 / RFU, WIPF1 / Fold change vs veh, WIPF1 / RFU, LARP1B / Fold change vs veh, LARP1B / RFU, RASA1 / Fold change vs veh, RASA1 / RFU, RB1 / Fold change vs veh, RB1 / RFU, PPFIA1 / Fold change vs veh, PPFIA1 / RFU, MAT2A / Fold change vs veh, MAT2A / RFU, CCT5 / Fold change vs veh, CCT5 / RFU, WDR92 / Fold change vs veh, WDR92 / RFU, CUX1 / Fold change vs veh, CUX1 / RFU, TTC7A / Fold change vs veh, TTC7A / RFU, TMEM135 / Fold change vs veh, TMEM135 / RFU, DEPTOR / Fold change vs veh, DEPTOR / RFU, CPM / Fold change vs veh, CPM / RFU, DNAJB6 / Fold change vs veh, DNAJB6 / RFU, CACNA2D3 / Fold change vs veh, CACNA2D3 / RFU, DTX4 / Fold change vs veh, DTX4 / RFU, TFCP2 / Fold change vs veh, TFCP2 / RFU, GMCL1 /// GMCL1P1 / Fold change vs veh, GMCL1 /// GMCL1P1 / RFU, AEBP2 / Fold change vs veh, AEBP2 / RFU, SNHG1 /// SNORD22 /// SNORD25 /// SNORD26 /// SNORD27 /// SNORD28 /// SNORD29 /// SNORD31 / Fold change vs veh, SNHG1 /// SNORD22 /// SNORD25 /// SNORD26 /// SNORD27 /// SNORD28 /// SNORD29 /// SNORD31 / Fold change (Aza/veh), C12orf56 (ProbeSet 11735607_a_at) / Fold change (ACY-1035/veh), C12orf56 (ProbeSet 11735607_a_at) / Fold change (Aza/veh), FGFR1OP (ProbeSet 11751329_s_at) / Fold change (ACY-1035/veh), FGFR1OP (ProbeSet 11751329_s_at) / Fold change (Aza/veh), VPS36 (ProbeSet 11739960_a_at) / Fold change (ACY-1035/veh), VPS36 (ProbeSet 11739960_a_at) / RFU SYPL1 (11715823_x_at) / Fold change /veh SYPL1 (11715823_x_at) / RFU IGFBP7 (11715501_s_at) / Fold change /veh IGFBP7 (11715501_s_at) / RFU REEP3 (11722064_at) / Fold change /veh REEP3 (11722064_at) / RFU IGLL1 (11728026_x_at) / Fold change /veh IGLL1 (11728026_x_at): dose or concentration left out as unconfirmed
Details: MV-4-11 cells, 48 hours

SMILES: Nc1ccc(-c2cccs2)cc1NC(=O)c1ccc2c(c1)cc(C1CC1)n2CCN1CCOCC1 [ACY-1035]
- RFU C10orf10 (11716522_x_at): 43.57 RFU
